Data from the NIST ThermoML archive (doi:10.1016/j.jct.2017.03.002).

Experiments:
[1] = for surface tension liquid-gas: Capillary rise; for vapor or sublimation pressure: Closed cell (Static) method
[2] = xn = mol fraction of the nth substance listed; settings: Capillary rise

CCC [propane]
[1]
Settings | surface tension liquid-gas [mN/m]
270.51 K | 10.4
271.77 K | 10.3
280.13 K | 9.28
285.35 K | 8.37
287.35 K | 8.37
289.65 K | 8.09
291.75 K | 7.78
297.98 K | 7.12
300.92 K | 6.57
303.37 K | 6.48
314.06 K | 4.99

[1], Liquid
Settings | vapor or sublimation pressure [kPa]
270.51 K | 437.5
271.77 K | 456
280.13 K | 583.7
285.35 K | 680.6
287.35 K | 715.4
289.65 K | 762.1
291.75 K | 806.2
297.98 K | 948.2
300.92 K | 1021.2
303.37 K | 1083.1
314.06 K | 1398

CC [ethane]
[1]
Settings | surface tension liquid-gas [mN/m]
274.62 K | 2.95
279.17 K | 2.4
283.79 K | 1.85
291.25 K | 1.05
293.15 K | 0.95
294.16 K | 0.91
295.04 K | 0.81
297.18 K | 0.62
299.13 K | 0.43
301.25 K | 0.27
303.1 K | 0.13

[1]
Settings | Critical pressure [kPa] | Critical temperature [K] | vapor or sublimation pressure [kPa]
274.62 K, Liquid | – | – | 2472.5
279.17 K, Liquid | – | – | 2753.2
283.79 K, Liquid | – | – | 3060.9
291.25 K, Liquid | – | – | 3615.2
293.15 K, Liquid | – | – | 3764.3
294.16 K, Liquid | – | – | 3848
295.04 K, Liquid | – | – | 3919.9
297.18 K, Liquid | – | – | 4105.5
299.13 K, Liquid | – | – | 4277.5
301.25 K, Liquid | – | – | 4471.9
303.1 K, Liquid | – | – | 4650.3
304.95 K, Liquid | – | – | 4832.5
Liquid, Direct measurement | 4870 | – | –
Liquid, Visual observation in a stirred cell | – | 305.39 | –

C [methane] + CCC
[2]
Settings | surface tension liquid-gas [mN/m]
272.08 K, x1 = 0.139 | 7.06
272.1 K, x1 = 0.45 | 1.71
272.14 K, x1 = 0.0508 | 9.38
272.24 K, x1 = 0.105 | 7.99
272.25 K, x1 = 0.32 | 3.54
272.28 K, x1 = 0.493 | 1.36
272.29 K, x1 = 0.265 | 4.85
272.33 K, x1 = 0.391 | 2.63
272.34 K, x1 = 0.206 | 5.99
272.35 K, x1 = 0.554 | 0.51
285.35 K, x1 = 0.0217 | 7.89
285.37 K, x1 = 0.0609 | 7.13
285.39 K, x1 = 0.398 | 1.57
285.5 K, x1 = 0.323 | 2.35
285.5 K, x1 = 0.525 | 0.34
285.55 K, x1 = 0.279 | 3.1
285.55 K, x1 = 0.474 | 0.76
285.65 K, x1 = 0.165 | 5.02
285.76 K, x1 = 0.122 | 6.1
303.15 K, x1 = 0.117 | 4.12
303.35 K, x1 = 0.318 | 1.27
303.37 K, x1 = 0.389 | 0.62
303.37 K, x1 = 0.433 | 0.27
303.45 K, x1 = 0.201 | 2.99

CCC [propane] + C
[2], x2 = 0
Settings | surface tension liquid-gas [mN/m]
271.77 K | 10.3
285.35 K | 8.37
303.37 K | 6.48
